Laboratory results from US20080312201A1, “Reduced Toxicity Methotrexate Formulations and Methods for Using the Same” (priority 2004, published 2008).

How the values were obtained:
[1] = tested on: mice; experiment: Mouse testing: toxic side effects of MTX, liver examination; type: in vivo; details: after two weeks of treatment every other day
Experimental: (§1) The primary aspect is testing in mice for the ability to translate the toxic reducing action of the additive from flies into mice. Methotrexate was administered at a more moderate dose level, repeatedly over a long period of time. All additives tested for reducing the toxic side effects of MTX in mice were successful. That is 100% of the compounds identified in flies as toxic reducing compounds translated this activity into mice, for both chronic and acute applications. One of the signs of chronic liver damage by methotrexate is metabolic weight gain. The treatments were done on older juvenile mice (cohort of six). There weight gain was followed for two weeks with treatments given every other day.
At the end of the experiment, livers were examined.

[2] = Mouse testing: weight gain under repeated methotrexate; type: in vivo; details: older juvenile mice, cohort of six; for weight: treatments every other day
Experimental: as §1

[3] = tested on: fruit flies; experiment: Lethal dose (LD) curve in fruit flies; type: in vivo, Drosophila; details: chemical mixed into food and water, 50 wild-type embryos; range tested 0.01 mM to 5 mM
Experimental: The LD curve in fruit flies was generated for methotrexate. The data to generate the curve was obtained by: Mixing a specific concentration of chemical into the food and water supply of the fruit flies, then 50 wild-type embryos are added to the assay. The LD value for this concentration was calculated by 100−(2×(number of alive flies)). The LD curve was generated by repeating this method over a concentration range. For example, the concentration range tested for methotrexate was 0.01 mM to 5 mM. The LD 98 was identified for methotrexate was 0.5 mM. The LD98 was used as a stringent level for identifying additive chemicals that reduce the toxicity. This stringent level of toxicity is key for several reasons: 1) The high toxicity dose turns even mild toxic side effects into significant barriers for the flies to survive. At the LD98 concentration of methotrexate, all of the toxic mechanisms are orders of magnitude above that observed at physiological treatment doses. At the LD98 dose, suppressing any one toxicity side effect will not enable significant survival of the flies. An additive that enables significant survival is more likely able to reduce all toxic side effects of methotrexate.

[4] = tested on: Ovarian cancer cell; experiment: Human cancer cell assessment; type: cell-based
Excerpt: As a quick secondary screen, the additive alone and in combination with the target drug was examined in these human cancer cell lines. The results of TK-336 are shown as a specific example. The compound alone when treated over a wide concentration range had no effects against the cancer cells.

## CN(Cc1cnc2nc(N)nc(N)c2n1)c1ccc(C(=O)N[C@@H](CCC(=O)O)C(=O)O)cc1 [MTX]
[1]
  appearance of the livers at the end of the experiment: smaller, yellow/orange in color and had almost no veins in the organ
  vein density in the liver: 5 % of the normal density
[2]; Day 0
  weight: 107
[2]; Day 7
  weight: 107
[2]; Day 14
  weight: 110
[2]; over two weeks
  weight gain/week: ~1 % weight gain/week
[3]
  LD98: 0.5 mM
[4]; 15 μg/ml
  Cell survival: 50%
[4]; 30 μg/ml
  Cell survival: 5%
